# Experimental data as given in patent US20230374034A1, “NOVEL BICYCLIC COMPOUNDS” (PRISM BIOLAB CO., LTD., priority 2020, published 2023).
# Test system: NICD (Notch intracellular domain) CSL-bla reporter in HeLa cells
# Experiment: Notch assay (CellSensor T-REx NICD CSL-bla HeLa beta-lactamase reporter; Method 1 / Method 2)
# Format: cell-based
# Conditions: Homo sapiens, 10 μM compound, Method 2 (40 nL of 1000× compound added to plate with Echo), read-out: inhibiton (%) at 10 μM
# How it was run: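 HeLa cells carrying doxycycline-inducible NICD and a CSL-driven beta-lactamase reporter, 10^3 cells/well, were treated with compound plus doxycycline for 16-20 h at 37 °C. CCF4-AM substrate was loaded for 4 h at room temperature; background-subtracted blue (460 nm)/green (530 nm) emission ratio taken per well.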
row,Compound,inhibition at 10 µM [%]
1,"O=C(NCCCO)[C@H](Cc1ccccc1)N1CC2N(C(=O)OCCc3ccc(O)cc3)O[C@H](Cc3ccccc3)C(=O)N2[C@@H](Cc2ccccc2)C1=O (stereo partly drawn) [Compound I-81, 4-hydroxyphenethyl (3R,6S)-3,6-dibenzyl-8-((S)-1-((3-hydroxypropyl)amino)-1-oxo-3-phenylpropan-2-yl)-4,7-dioxohexahydro-pyrazino[2,1-c] [1,2,4]oxadiazine-1(6H)-carboxylate]",53
2,"CCCC[C@@H](C(=O)NCCC(C)C)N1CC2N(C(=O)OCCc3ccccc3)O[C@H](Cc3ccccc3)C(=O)N2[C@@H](Cc2ccccc2)C1=O (stereo partly drawn) [Compound I-82, phenethyl (3R,6S)-3,6-dibenzyl-8-((S)-1-(isopentylamino)-1-oxohexan-2-yl)-4,7-dioxohexahydro-pyrazino[2,1-c] [1,2,4]oxadiazine-1(6H)-carboxylate]",51.2
3,"O=C(NCCc1ccccc1)[C@H](Cc1ccccc1)N1CC2N(C(=O)OCCc3ccc(O)cc3)O[C@H](Cc3ccc(O)cc3)C(=O)N2[C@@H](Cc2ccccc2)C1=O (stereo partly drawn) [Compound I-83, 4-hydroxyphenethyl (3R,6S)-6-benzyl-3-(4-hydroxybenzyl)-4,7-dioxo-8-((S)-1-oxo-1-(phenethylamino)-3-phenylpropan-2-yl)hexahydropyrazino [2,1-c][1,2,4]oxadiazine-1(6H)-carboxylate]",76.2
4,"CC(C)CCOC(=O)N1O[C@H](C)C(=O)N2C1CN([C@@H](Cc1ccccc1)C(=O)NCCC(N)=O)C(=O)[C@@H]2Cc1ccccc1 (stereo partly drawn) [Compound I-84, isopentyl (3R,6S)-8-((S)-1-((3-amino-3-oxopropyl)amino)-1-oxo-3-phenylpropan-2-yl)-6-benzyl-3-methyl-4,7-dioxohexahydro-pyrazino[2,1-c] [1,2,4]oxadiazine-1(6H)-carboxylate]",78.4
5,"C[C@H]1ON(C(=O)OCCc2ccccc2)C2CN([C@@H](Cc3ccccc3)C(=O)NCCC(N)=O)C(=O)[C@H](Cc3ccccc3)N2C1=O (stereo partly drawn) [Compound I-85, phenethyl (3R,6S)-8-((S)-1-((3-amino-3-oxopropyl)amino)-1-oxo-3-phenylpropan-2-yl)-6-benzyl-3-methyl-4,7-dioxohexahydro-pyrazino[2,1-c] [1,2,4]oxadiazine-1(6H)-carboxylate]",66.5
6,"C[C@H]1ON(C(=O)OCCc2ccc(O)cc2)C2CN([C@@H](Cc3ccccc3)C(=O)NCCC(N)=O)C(=O)[C@H](Cc3ccccc3)N2C1=O (stereo partly drawn) [Compound I-86, 4-hydroxyphenethyl (3R,6S)-8-((S)-1-((3-amino-3-oxopropyl)amino)-1-oxo-3-phenylpropan-2-yl)-6-benzyl-3-methyl-4,7-dioxohexahydro-pyrazino[2,1-c] [1,2,4]oxadiazine-1(6H)-carboxylate]",70.9
7,"CC(C)CCOC(=O)N1O[C@H](C)C(=O)N2C1CN([C@@H](Cc1ccccc1)C(=O)NCCCC(N)=O)C(=O)[C@@H]2Cc1ccccc1 (stereo partly drawn) [Compound I-87, isopentyl (3R,6S)-8-((S)-1-((4-amino-4-oxobutyl)amino)-1-oxo-3-phenylpropan-2-yl)-6-benzyl-3-methyl-4,7-dioxohexahydro-pyrazino[2,1-c] [1,2,4]oxadiazine-1(6H)-carboxylate]",58.3
8,"CC(C)CCOC(=O)N1O[C@H](C)C(=O)N2C1CN([C@@H](Cc1ccccc1)C(=O)NCCO)C(=O)[C@@H]2Cc1ccccc1 (stereo partly drawn) [Compound I-88, isopentyl (3R,6S)-6-benzyl-8-((S)-1-((2-hydroxyethyl)amino)-1-oxo-3-phenylpropan-2-yl)-3-methyl-4,7-dioxohexahydropyrazino[2,1-c][1,2,4]oxadiazine-1(6H)-carboxylate]",63.9
9,"CC(C)CCOC(=O)N1O[C@H](C)C(=O)N2C1CN([C@@H](Cc1ccccc1)C(=O)NCCCO)C(=O)[C@@H]2Cc1ccccc1 (stereo partly drawn) [Compound I-89, isopentyl (3R,6S)-6-benzyl-8-((S)-1-((3-hydroxypropyl)amino)-1-oxo-3-phenylpropan-2-yl)-3-methyl-4,7-dioxohexahydropyrazino[2,1-c][1,2,4]oxadiazine-1(6H)-carboxylate]",58.3
10,"CC(C)CCNC(=O)[C@H](Cc1ccccc1)N1CC2N(C(=O)OCCc3ccccc3)O[C@H](CCC(N)=O)C(=O)N2[C@@H](Cc2ccccc2)C1=O (stereo partly drawn) [Compound I-90, phenethyl (3R,6S)-3-(3-amino-3-oxopropyl)-6-benzyl-8-((S)-1-(isopentylamino)-1-oxo-3-phenylpropan-2-yl)-4,7-dioxohexahydropyrazino[2,1-c][1,2,4]oxadiazine-1(6H)-carboxylate]",62.4
11,"CC(C)CCNC(=O)[C@H](CC(C)C)N1CC2N(C(=O)OCCc3ccc(O)cc3)O[C@H](CC(C)C)C(=O)N2[C@@H](Cc2ccc(O)cc2)C1=O (stereo partly drawn) [Compound I-91, 4-hydroxyphenethyl (3R,6S)-6-(4-hydroxybenzyl)-3-isobutyl-8-((S)-1-(isopentylamino)-4-methyl-1-oxopentan-2-yl)-4,7-dioxohexahydropyrazino[2,1-c][1,2,4]oxadiazine-1(6H)-carboxylate]",51
12,"CCCCCOC(=O)N1O[C@H](CC(C)C)C(=O)N2C1CN([C@@H](Cc1ccccc1)C(=O)NCCC(C)C)C(=O)[C@@H]2Cc1ccc(O)cc1 (stereo partly drawn) [Compound I-92, pentyl (3R,6S)-6-(4-hydroxybenzyl)-3-isobutyl-8-((S)-1-(isopentylamino)-1-oxo-3-phenylpropan-2-yl)-4,7-dioxohexahydropyrazino[2,1-c][1,2,4]oxadiazine-1(6H)-carboxylate]",50.1
13,"CC(C)C[C@H]1ON(C(=O)OCCc2ccc(O)cc2)C2CN([C@@H](Cc3ccccc3)C(=O)NCCc3ccccc3)C(=O)[C@H](Cc3ccc(O)cc3)N2C1=O (stereo partly drawn) [Compound I-93, 4-hydroxyphenethyl (3R,6S)-6-(4-hydroxybenzyl)-3-isobutyl-4,7-dioxo-8-((S)-1-oxo-1-(phenethylamino)-3-phenylpropan-2-yl)hexahydropyrazino[2,1-c][1,2,4]oxadiazine-1(6H)-carboxylate]",76.3
14,"CC(C)CCNC(=O)[C@H](Cc1ccc(O)cc1)N1CC2N(C(=O)OCCC(C)C)O[C@H](CC(C)C)C(=O)N2[C@@H](Cc2ccc(O)cc2)C1=O (stereo partly drawn) [Compound I-94, isopentyl (3R,6S)-6-(4-hydroxybenzyl)-8-((S)-3-(4-hydroxyphenyl)-1-(isopentylamino)-1-oxopropan-2-yl)-3-isobutyl-4,7-dioxohexahydropyrazino[2,1-c][1,2,4]oxadiazine-1(6H)-carboxylate]",57.8
15,"CC(C)CCNC(=O)[C@H](Cc1ccc(O)cc1)N1CC2N(C(=O)OCCc3ccc(O)cc3)O[C@H](CC(C)C)C(=O)N2[C@@H](Cc2ccc(O)cc2)C1=O (stereo partly drawn) [Compound I-95, 4-hydroxyphenethyl (3R,6S)-6-(4-hydroxybenzyl)-8-((S)-3-(4-hydroxyphenyl)-1-(isopentylamino)-1-oxopropan-2-yl)-3-isobutyl-4,7-dioxohexahydropyrazino[2,1-c][1,2,4]oxadiazine-1(6H)-carboxylate]",60.1
16,"CCCCCOC(=O)N1O[C@H](CC(C)C)C(=O)N2C1CN([C@@H](Cc1ccc(O)cc1)C(=O)NCCC(C)C)C(=O)[C@@H]2Cc1ccc(O)cc1 (stereo partly drawn) [Compound I-96, pentyl (3R,6S)-6-(4-hydroxybenzyl)-8-((S)-3-(4-hydroxyphenyl)-1-(isopentylamino)-1-oxopropan-2-yl)-3-isobutyl-4,7-dioxohexahydropyrazino[2,1-c][1,2,4]oxadiazine-1(6H)-carboxylate]",56.3
